Experimental data published in patent publication US20250032581A1, “COMPOSITIONS AND ARTICLES COMPRISING AN ADNF POLYPEPTIDE” (RAMOT AT TEL-AVIV UNIVERSITY LTD., priority 2021, published 2025).

Experiments:
[1] = tested on: differentiated N1E-115 cells expressing RFP-tagged EB3; test: Live imaging of EB3 comet-like structures (MT dynamics); format: cell-based, mouse
From the text: Plasmid construction—Protein expressing plasmids were constructed as previously described based on pEGFP-C1 backbone and express full-length ADNP or the following truncated ADNP proteins: p.Glu830synfs*83, p.Lys408Valfs*31, p.Ser404* (as before). Inserts of cDNA carrying unique mutations were obtained from mRNA extracted from patient-derived lymphoblastoid cell lines and cDNA with full-length human ADNP was obtained from a control lymphoblastoid cell line with no mutation. Protein expressions were verified by fluorescent imaging and immunoblotting analysis as before.
Cell culture—Mouse neuroblastoma NIE-115 cells were maintained in Dulbecco's modified Eagle's medium, 10% fetal bovine serum, 2 mM glutamine and 100 U ml-1 penicillin, 100 mg ml-1 streptomycin (Biological Industries, Beit Haemek, Israel). The cells were incubated in 9 5% air/5% CO2 in a humidified incubator at 37° C.
Cell differentiation and co-transfection of overexpression plasmids—Cultured NIE-115 cells were plated on 35 mm dishes (81156, 60 p-Dish, Ibidi, Martinsried, Germany) at a concentration of 1.25×10^4 cells per dish and then were differentiated with reduced fetal bovine serum (2%) and DMSO (1.25%) containing medium for 5 days before transfection. 48 hrs before experiments N1E-115 cells were co-transfected with 1 μg EB3-RFP or mCherry-Tau (3R) plasmid with or without 2 μg of plasmids, coding to GFP conjugated to full-length human ADNP, or ADNP carried mutations. 1:3 ratios between total amount of transfected DNA and transfection reagent were used according to manufacture guidance (Lipofectamine2000, Thermo Fisher Scientific, Waltham, MA, USA) in all subsequent experiments.
Live Imaging—48 hrs after transfection, differentiated NIE-115 cells (expressing EB3-RFP with or without GFP-conjugated to full-length ADNP or mutated ADNP) were incubated at 37° C. with a 5% CO2/95% air mixture in a thermostatic chamber placed on the stage of a Leica TCS SP5 confocal microscope (objective 100× (PL Apo) oil immersion, NA 1.4). Time-lapse images were automatically captured 3 sec during 1 min, using the Leica LAS AF software. After imaging all samples were also treated with NAP (SEQ ID NO: 2) or SKIP (SEQ ID NO: 21) in final concentrations of 10^−12M, and after 4 hrs time-lapse imaging was done again under the same conditions. Data was collected and analyzed by Imaris software.
To evaluate the effect of ADNP truncated proteins on MT dynamics time-lapse imaging of EB3 comet-like structures formed by RFP-tagged EB3 proteins that bind to MT plus-ends was performed. Two parameters of EB3 activity were used to assess MT dynamics—track length and track speed of EB3 comets, which reflect the length of freshly growing MTs and the speed of MT assembly, respectively. Furthermore, the present inventors aimed to determine whether NAP ([…] for 4 hrs) could prevent the deleterious effect of ADNP mutations.

Tau, tubulin = test: Polymerized vs. soluble tubulin assay; format: cell-based, mouse; conditions: zinc 400 μM, 4 h, peptide 10^−12M
Procedure: Polymerized vs. soluble tubulin assay—To quantify tubulin polymerization and Tau-MT association, a simple assay was performed as previously described. The cells grown to confluence in six-well plates were washed with MT buffer (80 mM PIPES pH 6.8, 1 mM MgCl^2, 2 mM EGTA, 5% Glycerol) and lysed at room temperature for 5 min through centrifugation (300 g), with 150 μl of MT buffer with 0.5% Triton X-100 to extract soluble (cytosolic) tubulin (S). The pelleted cells were rinsed once again with an equal volume of modified RIPA lysis buffer (50 mM Tris-HCL pH 7.4, 150 mM NaCl, 2 mM EGTA, 1% Triton X-100, 0. 1% SDS, 0.1% sodium Deoxycholate) to collect the polymerized (cytoskeletal) tubulin (P). The cytosolic and cytoskeletal fractions were each mixed with sample buffer and heated at 95° C. for 5 min. An equal volume of each fraction was analyzed by immunoblotting with Tau, tubulin and actin antibodies, and the results following ECL development were quantified by densitometry (GelQuant.NET software provided by biochemlabsolutions(dot)com).
It is known that in the presence of extracellular zinc NAP protects MT against degradation by promoting Tau binding to the MT shaft. Polymerized vs. soluble tubulin assay was effected to compare protective activities of NAP and SKIP against MT degradation and Tau-MT dissociation (FIGS. 11F-G). After treatments with zinc (400 μM, 4 h) with and without NAP or SKIP (10^−12M, 4 h) the cellular-tubulin pool was separated into polymerized and soluble tubulin fractions. The amount of Tau, tubulin, and actin was identified by immunoblotting (FIG. 11F), followed by densitometric quantification (FIG. 11G).

## CC[C@H](C)[C@H](NC(=O)[C@H](CO)NC(=O)[C@@H](NC(=O)[C@@H]1CCCN1C(=O)[C@H](C)NC(=O)[C@@H](N)CC(N)=O)C(C)C)C(=O)N1CCC[C@H]1C(=O)N[C@@H](CCC(N)=O)C(=O)O [NAP, NAPVSIPQ]
[1]; 10^−12M, 4 hrs, vs. non-treated control, no significant differences between NAP and SKIP
  EB3 track length and speed: increased EB3 track length and speed
[1]; cells expressing ADNP p.Glu830synfs*83, NAP 4 hrs
  EB3 comet speed and track length: significantly augmented
[1]; cells expressing ADNP p.Ser404*, NAP 4 hrs
  EB3 comet speed and track length: significantly augmented
[1]; cells expressing full-length ADNP, NAP 4 hrs
  EB3 comet track length and speed: did not further influence the effect of full-length ADNP
Tau, tubulin
  protection against Tau dissociation from MTs (soluble Tau ratio): only NAP exhibited protection against Tau dissociation from MTs
  protection of polymerized tubulin against zinc: protected against zinc-induced decay
